Assay results reported in PubChem BioAssay (NCI).
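Tested at 5 concentrations; 48 h exposure; 96-well plates; endpoints linearly interpolated, else capped at highest concentration. Abbreviation: GI50, concentration required for 50% inhibition of growth. Definition used: TGI = concentration required for complete inhibition of growth.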

Key:
Assay in all cases: growth of human tumour cells (NCI), 48 h
[1] = system: DU-145 prostate
[2] = system: HT29 colon
[3] = system: CCRF-CEM leukemia
[4] = system: MDA-MB-435
[5] = system: K-562 leukemia
[6] = system: TK-10 renal
[7] = system: A498 renal
[8] = system: NCI/ADR-RES ovarian
[9] = system: SK-OV-3 ovarian
[10] = system: SW-620 colon
[11] = system: SK-MEL-2 melanoma
[12] = system: SK-MEL-5 melanoma
[13] = system: HS 578T breast
[14] = system: UACC-62 melanoma
[15] = system: CAKI-1 renal
[16] = system: MOLT-4 leukemia
[17] = system: SN12C renal
[18] = system: MDA-MB-231 breast
[19] = system: RXF 393 renal
[20] = system: MCF7 breast
[21] = system: HL-60(TB) leukemia
[22] = system: HCC-2998 colon
[23] = system: 786-0 renal
[24] = system: RPMI-8226 leukemia
[25] = system: SR leukemia
[26] = system: SF-295 CNS
[27] = system: OVCAR-8 ovarian
[28] = system: OVCAR-5 ovarian
[29] = system: ACHN renal
[30] = system: HCT-15 colon
[31] = system: KM12 colon
[32] = system: A549 NSCLC
[33] = system: EKVX NSCLC
[34] = system: HCT-116 colon
[35] = system: LOX IMVI melanoma
[36] = system: NCI-H23 lung
[37] = system: NCI-H460 lung
[38] = system: U251 CNS
[39] = system: SNB-19 CNS
[40] = system: SF-539 CNS
[41] = system: PC-3 prostate
[42] = system: BT-549 breast
[43] = system: HOP-92 NSCLC
[44] = system: OVCAR-3 ovarian
[45] = system: UO-31 renal
[46] = system: HOP-62 NSCLC
[47] = system: OVCAR-4 ovarian
[48] = system: NCI-H522 lung
[49] = system: SNB-75 CNS
[50] = system: SF-268 CNS
[51] = system: IGROV1 ovarian
[52] = system: NCI-H226 lung
[53] = system: COLO 205 colon

## COc1ccc2c(CCCC(c3ccccc3)c3ccccc3)c3[n+](cc2c1OC)CCc1cc2c(cc1-3)OCO2
[1]
  GI50: 470 nM
  TGI: 1720 nM
[2]
  GI50: 219 nM
  TGI: 1170 nM
[3]
  GI50: 453 nM
  TGI: 2560 nM
[4]
  GI50: 293 nM
  TGI: 1150 nM
[5]
  GI50: 318 nM
  TGI: 1740 nM
[6]
  GI50: 324 nM
  TGI: 1290 nM
[7]
  GI50: 96.9 nM
  TGI: 996 nM
[8]
  GI50: 4830 nM
  TGI: 38900 nM
[9]
  GI50: 303 nM
  TGI: 1050 nM
[10]
  GI50: 323 nM
  TGI: 1390 nM
[11]
  GI50: 271 nM
  TGI: 1110 nM
[12]
  GI50: 149 nM
  TGI: 284 nM
[13]
  GI50: 370 nM
  TGI: 2100 nM
[14]
  GI50: 243 nM
  TGI: 1060 nM
[15]
  GI50: 2270 nM
  TGI: 6510 nM
[16]
  GI50: 376 nM
  TGI: 2070 nM

## COC(=O)[C@@H](C)C[C@H](Cc1ccccc1)NC(=O)c1nc([C@@H](C[C@H](C(C)C)N(C)C(=O)[C@@H](NC(=O)[C@H]2CCCCN2C)C(C)C)OC(C)=O)sc1C
[17]
  GI50: < 1.67 nM
  TGI: > 16700 nM
[1]
  GI50: < 1.67 nM
  TGI: > 16700 nM
[18]
  GI50: < 1.67 nM
  TGI: 441 nM
[19]
  GI50: < 1.67 nM
  TGI: > 16700 nM
[2]
  GI50: < 1.67 nM
  TGI: 88 nM
[3]
  GI50: < 1.67 nM
  TGI: > 16700 nM
[20]
  GI50: < 1.67 nM
  TGI: > 16700 nM
[21]
  GI50: < 1.67 nM
  TGI: < 1.67 nM
[22]
  GI50: < 1.67 nM
  TGI: > 16700 nM
[23]
  GI50: < 1.67 nM
  TGI: > 16700 nM
[24]
  GI50: < 1.67 nM
  TGI: > 11400 nM
[25]
  GI50: < 1.67 nM
  TGI: > 16700 nM
[26]
  GI50: < 1.67 nM
  TGI: > 16700 nM
[4]
  GI50: < 1.67 nM
  TGI: < 1.67 nM
[27]
  GI50: < 1.67 nM
  TGI: > 16700 nM
[28]
  GI50: 4.78 nM
  TGI: > 16700 nM
[29]
  GI50: 5.85 nM
  TGI: > 16700 nM
[5]
  GI50: < 1.67 nM
  TGI: > 16700 nM
[30]
  GI50: 5.36 nM
  TGI: > 16700 nM
[6]
  GI50: > 10400 nM
  TGI: > 16700 nM
[31]
  GI50: < 1.67 nM
  TGI: > 16700 nM
[32]
  GI50: 7.34 nM
  TGI: > 16700 nM
[33]
  GI50: 6.66 nM
  TGI: > 16700 nM
[34]
  GI50: < 1.67 nM
  TGI: > 9500 nM
[7]
  GI50: < 1.67 nM
  TGI: > 3990 nM
[8]
  GI50: 52.1 nM
  TGI: > 16700 nM
[35]
  GI50: < 1.67 nM
  TGI: > 16700 nM
[36]
  GI50: 3.02 nM
  TGI: > 16700 nM
[9]
  GI50: < 1.67 nM
  TGI: > 16700 nM
[10]
  GI50: < 1.67 nM
  TGI: > 16700 nM
[37]
  GI50: < 1.67 nM
  TGI: > 16700 nM
[38]
  GI50: < 1.67 nM
  TGI: > 16700 nM
[11]
  GI50: < 1.67 nM
  TGI: > 16700 nM
[39]
  GI50: < 1.67 nM
  TGI: > 16700 nM
[12]
  GI50: < 1.67 nM
  TGI: 56.5 nM
[40]
  GI50: 2.39 nM
  TGI: 8.22 nM
[13]
  GI50: 2.4 nM
  TGI: > 16700 nM
[41]
  GI50: < 1.67 nM
  TGI: > 16700 nM
[42]
  GI50: < 1.67 nM
  TGI: 56.8 nM
[43]
  GI50: 3.23 nM
  TGI: 16500 nM
[14]
  GI50: < 1.67 nM
  TGI: > 16700 nM
[44]
  GI50: < 1.67 nM
[45]
  GI50: 11.8 nM
  TGI: > 16700 nM
[46]
  GI50: 1.86 nM
  TGI: > 16700 nM
[47]
  GI50: 17.9 nM
  TGI: > 16700 nM
[48]
  GI50: < 1.67 nM
  TGI: < 1.67 nM
[49]
  GI50: < 1.67 nM
  TGI: > 7570 nM
[50]
  GI50: 4.72 nM
  TGI: > 16700 nM
[51]
  GI50: 1.7 nM
  TGI: > 16700 nM
[52]
  GI50: 27.5 nM
  TGI: > 16700 nM
[53]
  GI50: < 1.67 nM
  TGI: 9.26 nM
[16]
  GI50: 2.25 nM
  TGI: > 16700 nM
